Where two headings read alike, the source gives them in different places.
Tests used:
[1] = target: T1, full-length human HuR protein (Homo sapiens, UniProt Q15717); test: FP assay of HuR-Msi1 ARE binding inhibition; details: HuR-Msi1 ARE interaction; read-out: HuR Ki via FP assay
T1 construct: full-length human HuR protein was produced by the KU COBRE-PSF Protein Purification Group; made in house
Source text: A fluorescence polarization (FP)-based binding assay was utilized to assess the inhibition of HuR protein interaction with the ARE site of Msi1 mRNA (“HuR-Msi1^ARE”) by compounds of interest. Briefly, full-length human HuR protein was produced by the KU COBRE-PSF Protein Purification Group and Bcl2, Msi1 and XIAP mRNA sequences (16 nt) were designed based on literature precedent^23,24,31,32. Fluorescein labeled RNAs were purchased from Dharmacon with the following sequences: Msi1 RNA: 5′-[…]-3′-fluorescein; Bcl-2 RNA: 5′-[…]-3′-fluorescein; XIAP RNA: 5′-[…] UGUC-3′-fluorescein, and a 16-nt degenerative RNA with 3′-fluorescein label was used as a negative control.
(§1) With the FP assay of HuR-Msi1ARE binding, the inhibition of the HuR-Msi1ARE interaction by various compounds of the present technology was assessed. Similar FP assays for Musashi 2 (Msi2) and for RNA-binding protein Lin-28 homolog B (LIN28B) were also performed on various compounds of the present technology. The results of such assays for HuR are provided in Table 1 alongside the compound structures as well as ID numbers for ease of reference; the results of such assays for Msi1, Msi2, and LIN28B are provided in Table 2.

[2] = tested on: pancreatic cancer cell line MIAPaCa-2; test: Cytotoxicity assay (WST-8), MIAPaCa-2; type: cell-based; details: Homo sapiens, MIA PaCa-2, 96 h incubation
Method: (§2) The cytotoxicity of various compounds of the present technology in several cancer cell lines (pancreatic cancer cell line MIAPaCa-2, triple-negative breast cancer cell line MDA-MB-231, and colon cancer cell lines HCT116, HCT116 β/W, and RKO) was assessed by a cytotoxicity assay. Cells were seeded in 96-well culture plates (3,000-5,000 cells/well) and treated with titrated compounds in triplicate. After 96 h incubation, cell growth medium was removed and proliferation reagent WST-8 (Sigma) was added to each well and incubated at 37° C. for 1-3 h. Absorbance was then measured with a plate reader at 450 nm with correction at 650 nm. The results were expressed as the percentage of absorbance of treated wells versus that of vehicle control. IC50, the drug concentration causing 50% growth inhibition, was calculated via sigmoid curve fitting using GraphPad Prism 5.0. The results for those compounds tested against MIAPaCa-2 and MDA-MB-231 are provided in Table 1; the results for those compounds tested against colon cancer cell lines HCT116, HCT116 β/W, and RKO are provided in Table 3.

Msi1 = Msi1 (Homo sapiens, UniProt O43347); test: Msi1 FP assay; type: binding
Sequence of Msi1 (O43347 whole entry, species assumed): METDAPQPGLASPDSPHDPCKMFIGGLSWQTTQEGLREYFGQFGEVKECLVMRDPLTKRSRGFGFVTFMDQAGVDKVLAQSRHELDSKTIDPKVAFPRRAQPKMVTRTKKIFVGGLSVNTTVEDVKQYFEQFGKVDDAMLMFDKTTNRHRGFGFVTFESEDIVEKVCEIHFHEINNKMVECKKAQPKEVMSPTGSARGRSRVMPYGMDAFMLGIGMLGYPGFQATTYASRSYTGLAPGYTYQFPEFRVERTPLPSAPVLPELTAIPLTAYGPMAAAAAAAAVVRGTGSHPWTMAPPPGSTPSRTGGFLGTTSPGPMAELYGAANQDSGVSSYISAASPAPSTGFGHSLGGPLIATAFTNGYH
Method: as §1

Musashi 2 (Msi2) = Musashi 2 (Msi2) (Homo sapiens, UniProt Q96DH6); test: Msi2 FP assay; type: binding
Sequence of Musashi 2 (Msi2) (Q96DH6 whole entry, species assumed): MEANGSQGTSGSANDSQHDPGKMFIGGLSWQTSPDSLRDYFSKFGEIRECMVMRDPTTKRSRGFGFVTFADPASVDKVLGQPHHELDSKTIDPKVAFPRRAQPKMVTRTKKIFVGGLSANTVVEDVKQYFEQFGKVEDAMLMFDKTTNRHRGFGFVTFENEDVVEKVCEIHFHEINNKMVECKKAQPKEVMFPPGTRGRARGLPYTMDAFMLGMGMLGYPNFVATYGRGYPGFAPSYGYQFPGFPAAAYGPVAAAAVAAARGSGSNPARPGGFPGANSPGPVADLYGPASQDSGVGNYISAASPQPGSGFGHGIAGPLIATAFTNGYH
Method: as §1

[3] = target: T2, RNA-binding protein Lin-28 homolog B (LIN28B) (Homo sapiens, UniProt Q6ZN17); test: LIN28B FP assay
T2 sequence (Q6ZN17 1-250): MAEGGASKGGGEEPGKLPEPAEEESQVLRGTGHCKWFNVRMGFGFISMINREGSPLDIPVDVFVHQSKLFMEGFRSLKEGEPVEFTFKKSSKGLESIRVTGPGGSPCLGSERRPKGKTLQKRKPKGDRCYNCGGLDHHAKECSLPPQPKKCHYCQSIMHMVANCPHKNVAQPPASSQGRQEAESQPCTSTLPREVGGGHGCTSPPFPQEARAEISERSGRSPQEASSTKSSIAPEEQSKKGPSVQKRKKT
Method: as §1

[4] = tested on: triple-negative breast cancer cell line MDA-MB-231; test: Cytotoxicity assay (WST-8), MDA-MB-231; type: cell-based; details: Homo sapiens, 96 h incubation
Method: as §2

[5] = tested on: colon cancer cell line HCT116; test: Cytotoxicity assay (WST-8), HCT116; type: cell-based; details: Homo sapiens, HCT-116, 96 h incubation
Method: as §2

[6] = tested on: colon cancer cell line HCT116 β/W; test: Cytotoxicity assay (WST-8), HCT116 β/W; type: cell-based; details: Homo sapiens, HCT-116, 96 h incubation
Method: as §2

[7] = tested on: colon cancer cell line RKO; test: Cytotoxicity assay (WST-8), RKO; type: cell-based; details: 96 h incubation
Method: as §2

[8] = tested on: colon cancer cell line SW480; test: Cytotoxicity assay (WST-8), SW480; type: cell-based; details: Homo sapiens, 96 h incubation
[9] = cell without (RRM1) mark, read-out: Msi2 (Ki)
[10] = cell marked (RRM1), read-out: Msi2 (Ki) (RRM1)

T1 sequence (Q15717 whole entry): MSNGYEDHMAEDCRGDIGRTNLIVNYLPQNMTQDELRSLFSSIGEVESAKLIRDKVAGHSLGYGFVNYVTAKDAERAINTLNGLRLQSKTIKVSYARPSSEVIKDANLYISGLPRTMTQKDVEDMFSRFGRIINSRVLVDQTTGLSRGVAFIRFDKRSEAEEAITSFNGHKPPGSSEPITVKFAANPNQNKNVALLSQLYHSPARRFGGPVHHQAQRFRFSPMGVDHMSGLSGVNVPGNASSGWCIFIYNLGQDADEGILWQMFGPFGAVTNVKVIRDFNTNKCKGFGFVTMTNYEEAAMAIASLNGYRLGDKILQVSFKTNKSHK

| Structure (SMILES) | Ki [1] [µM] | IC50 [2] [µM] | Ki (Msi1) [µM] | Ki (Musashi 2 (Msi2); [9]) [µM] | Ki [3] [µM] | IC50 [4] [µM] | Ki (Musashi 2 (Msi2); [10]) [µM] | IC50 [5] [µM] | IC50 [6] [µM] | IC50 [7] [µM] | IC50 [8] [µM] |
| --- | --- | --- | --- | --- | --- | --- | --- | --- | --- | --- | --- |
| CC(C)(C)C(=O)Nc1ccc2sc(/C=C/C(=O)O)cc2c1 [KH-20A, (E)-3-(5-pivalamidobenzo[b]thiophen-2-yl)acrylic acid] | > 20 | > 100 | > 20 | > 20 | > 20 | – | – | – | – | – | – |
| CN(C)c1ccc(C(=O)Nc2ccc3sc(/C=C/C(=O)NO)cc3c2)cc1 [KH-36, (E)-4-(dimethylamino)-N-(2-(3-(hydroxyamino)-3-oxoprop-1-en-1-yl)benzo[b]thiophen-5-yl)benzamide] | 0.55 | – | – | – | 7.1 | 4.02 | 1.5 | 5.05 | 4 | 5.74 | 4.89 |
| NNC(=O)CCc1cc2cc(NC(=O)c3ccc(C(F)(F)F)cc3)ccc2s1 [KH-29E] | 3.32 | – | > 20 | > 20 | > 20 | 71.2 | – | – | – | – | – |
| CN(C)c1ccc(C(=O)Nc2ccc3sc(/C=C/C(=O)O)cc3c2)cc1 [KH-36A, (E)-3-(5-(4-(Dimethylamino)benzamido)benzo[b]thiophen-2-yl)acrylic acid] | 0.12 | – | 0.22 | – | 1.64 | > 100 | 0.5 | 98.5 | 99.9 | 62.9 | > 100 |
| CC(C)(C)c1ccc(C(=O)Nc2ccc3sc(/C=C/C(N)=O)cc3c2)cc1 [KH-19C, (E)-N-(2-(3-amino-3-oxoprop-1-en-1-yl)benzo[b]thiophen-5-yl)-4-(tert-butyl)benzamide] | 0.6 | – | > 20 | 4.83 | > 20 | 8.68 | – | – | – | – | – |
| CC(C)(C)c1ccc(C(=O)Nc2ccc3sc(CCC(=O)NN)cc3c2)cc1 [KH-22E, 4-(tert-butyl)-N-(2-(3-hydrazinyl-3-oxopropyl)benzo[b]thiophen-5-yl)benzamide] | 1.06 | – | > 20 | > 20 | > 20 | 8.56 | – | – | – | – | – |
| O=C(CCc1cc2cc(NC(=O)c3ccc(S(F)(F)(F)(F)F)cc3)ccc2s1)NO [KH-34, N-(2-(3-(Hydroxyamino)-3-oxopropyl)benzo[b]thiophen-5-yl)-4-(pentafluoro-X^6-sulfanyl)benzamide] | 1.53 | – | > 20 | > 20 | > 20 | 3.97 | – | – | – | – | – |
| CC(C)(C)c1ccc(C(=O)Nc2ccc3sc(/C=C/C(=O)NN)cc3c2)cc1 [KH-19E, (E)-4-(tert-butyl)-N-(2-(3-hydrazinyl-3-oxoprop-1-en-1-yl)benzo[b]thiophen-5-yl)benzamide] | 0.19 | – | > 20 | > 20 | > 20 | 28.4 | – | – | – | – | – |
| CN(C)c1ccc(C(=O)Nc2ccc3sc(CCC(=O)NO)cc3c2)cc1 [KH-38] | 2.88 | – | > 20 | > 20 | > 20 | 25.9 | – | – | – | – | – |
| CC(C)(C)c1ccc(C(=O)Nc2ccc3sc(/C=C/C(=O)O)cc3c2)cc1 [KH-19A, (E)-3-(5-(4-(tert-butyl)benzamido)benzo[b]thiophen-2-yl)acrylic acid] | 0.97 | 56 | 2.24 | – | > 20 | 72.1 | 0.28 | > 100 | 80.6 | 78.5 | > 100 |
| O=C(O)/C=C/c1cc2cc(NC(=O)c3ccc(S(F)(F)(F)(F)F)cc3)ccc2s1 [KH-33A, (E)-3-(5-(4-(pentafluoro-λ^6-sulfanyl)benzamido)benzo[b]thiophen-2-yl)acrylic acid] | 1.2 | – | 2.63 | – | > 20 | 50.1 | 1.03 | – | – | – | – |
| CC(C)(C)c1ccc(C(=O)Nc2ccc3[nH]c(C(=O)O)cc3c2)cc1 [KH-39A, 5-(4-(tert-butyl)benzamido)-1H-indole-2-carboxylic acid] | 12.5 | – | > 20 | – | > 20 | > 100 | 22 | – | – | – | – |
| CC(C)(C)c1cccc(C(=O)Nc2ccc3sc(CCC(=O)NN)cc3c2)c1 [KH-30E] | 4.19 | – | > 20 | > 20 | > 20 | 22.7 | – | – | – | – | – |
| CC(C)(C)c1cccc(C(=O)Nc2ccc3sc(/C=C/C(=O)O)cc3c2)c1 [KH-31A, (E)-3-(5-(3-(tert-Butyl)benzamido)benzo[b]thiophen-2-yl)acrylic acid] | 2.27 | – | 4.6 | – | > 20 | 95.3 | 1.36 | – | – | – | – |
| CC(C)(C)c1ccc(C(=O)Nc2ccc3sc(CCC(=O)O)cc3c2)cc1 [KH-22A, 3-(5-(4-(tert-Butyl)benzamido)benzo[b]thiophen-2-yl)propanoic acid] | 3.83 | – | > 20 | > 20 | > 20 | 19.8 | – | – | – | – | – |
| Cc1ccc(C(=O)Nc2ccc3sc(CCC(=O)O)cc3c2)cc1 [KH-27A, 3-(5-(4-Methylbenzamido)benzo[b]thiophen-2-yl)propanoic acid] | > 20 | – | > 20 | > 20 | > 20 | > 100 | – | – | – | – | – |
| CC(C)c1ccc(C(=O)Nc2ccc3sc(CCC(=O)O)cc3c2)cc1 [KH-37A, 3-(5-(4-Isopropylbenzamido)benzo[b]thiophen-2-yl)propanoic acid] | > 20 | – | > 20 | > 20 | > 20 | > 100 | – | – | – | – | – |
| CN(C)c1ccc(C(=O)Nc2ccc3sc(CCC(=O)O)cc3c2)cc1 [KH-38A, 3-(5-(4-(Dimethylamino)benzamido)benzo[b]thiophen-2-yl)propanoic acid] | > 20 | – | > 20 | > 20 | > 20 | > 100 | – | – | – | – | – |
| CC(C)(C)c1cccc(C(=O)Nc2ccc3sc(CCC(=O)O)cc3c2)c1 [KH-30A, 3-(5-(3-(tert-butyl)benzamido)benzo[b]thiophen-2-yl)propanoic acid] | > 20 | – | > 20 | > 20 | > 20 | > 100 | – | – | – | – | – |
| CC(C)(C)C(=O)Nc1ccc2sc(/C=C/C(=O)NO)cc2c1 [KH-20, (E)-N-hydroxy-3-(5-pivalamidobenzo[b]thiophen-2-yl)acrylamide] | > 20 | 3.98 | > 20 | > 20 | > 20 | – | – | – | – | – | – |
| O=C(/C=C/c1cc2cc(NC(=O)c3ccc(C(F)(F)F)cc3)ccc2s1)NO [KH-32] | 0.51 | – | 4.87 | – | > 20 | 2.62 | 2.64 | – | – | – | – |
| O=C(O)/C=C/c1cc2cc(NC(=O)c3ccc(C(F)(F)F)cc3)ccc2s1 [KH-32A, (E)-3-(5-(4-(Trifluoromethyl)benzamido)benzo[b]thiophen-2-yl)acrylic acid] | 1.6 | – | 4.36 | – | > 20 | > 100 | 1.68 | – | – | – | – |
| Cc1ccc(C(=O)Nc2ccc3sc(CCC(=O)NO)cc3c2)cc1 [KH-27, N-(2-(3-(hydroxyamino)-3-oxopropyl)benzo[b]thiophen-5-yl)-4-methylbenzamide] | 3.72 | – | > 20 | > 20 | > 20 | 9.34 | – | – | – | – | – |
